From article PMC5940854, “Nitrothiophene carboxamides, a novel narrow spectrum antibacterial series: Mechanism of action and Efficacy” (Scientific Reports, 2018)
Where two headings read alike, the source gives them in different places.

Key:
[1] = target: T1, NfsA (Escherichia coli, UniProt P17117); test: Nitroreductase activity assay, NfsA; format: biochemical, E. coli; conditions: 20 μM compound, 40 μM NADPH, 10 nM NfsA; slope of initial velocity
T1 construct: His-tag; made in house; host or cells: E. coli BL21(DE3), pET28a (pET-nfsA)
Experimental: Enzyme reducing each of the substrates are measured by monitoring the concomitant oxidation of NADPH by NfsA and NADH by NfsB in a fluorescence based assay. The reduction in fluorescence due to the NADH oxidation (excitation 350 nm, emission 460 nm) and NADPH oxidation (excitation 340 nm, emission 485 nm) is recorded using a TECAN Infinite M200Pro spectrophotometer, in half area solid black microtiter plates. This change in fluorescence directly corelates to the reduction of the nitro-compounds in the reaction. The NfsA assays is performed by initiating the reactions with 40 μM NADPH and 10 nM NfsA in 50 mM Tris-HCl (pH 7.4), 5 mM EDTA against 20 μM substrate (5 μl of compounds/substrate dissolved in 100% DMSO) in a total reaction volume of 100 μl at 25 °C. Similarly, the NfsB assay is also performed by initiating the reactions with 40 μM NADH and 70 nM NfsB in 50 mM Tris-HCl (pH 7.4), 5 mM EDTA against 20 μM substrate in a total reaction volume of 100 μl. […] All reactions are performed in replicates of two or more and the fluorescence measurements are made at 10 second intervals for 5–10 minutes.
Low solubility of the compounds/substrates under the NfsA and NfsB assay conditions precluded determination of their Km. […] The relative fluorescence units (RFU) obtained due to NADPH (excitation 340 nm, emission 485 nm) or NADH (excitation 350 nm, emission 460 nm) oxidation of the first 90 sec reaction is used to compute the slopes using linear regression analysis on GraphPad Prism. Appropriate blank reactions are included to account for background fluorescence/quenching from each of the components such as DMSO, the compound itself and auto-oxidation of NADPH or NADH. Activity of NfsB with a known substrate such as nitrofurantoin is used as a benchmark to plot the relative activities with all the test compounds.

[2] = test system: E. coli clinical isolates; test: MIC on panel of E. coli clinical isolates; format: cell-based
[3] = test system: E. coli ∆nfsAB & ∆acrB+nfnB; design: unit not given beside the values
Experimental: The inoculum used for all the experiments is derived from a single seed lot that is maintained as glycerol stocks at −80 °C and are sub cultured on LB plate for isolated colonies. Single colony of each strain is grown in M9 medium. All test compound stocks and dilutions are prepared in DMSO. Serial two-fold dilutions of compounds are prepared separately, with the concentrations ranging from 2 mg/mL to 0.015 mg/mL. To 150 µl (3–7 × 10^5 CFU/ml) of bacterial culture in 96 well microtitre plates, 3 μL compound from each of the dilutions is added to respective wells to obtain final concentrations ranging from 40 µg/mL to 0.3 µg/mL of the test compounds. Media control, culture control and appropriate reference drug controls are included. […] Growth is monitored by checking absorbance at 600 nm (A600). […] The samples from MIC and above concentrations are plated for MBC (Minimum Bactericidal Concentration). The samples are diluted 1:10 and plated on LB agar plates. […] The killing kinetics is determined by enumerating survivors at various time points following compound exposure. E. coli cells (~10^7 CFU/ml; A600 of 0.1) are treated with various concentrations (40 µg/mL to 0.3 µg/mL) of compounds in a 96-well microtitre plate. At various time intervals (0 to 8 h), 30 μl volumes of treated cultures are serially diluted and plated on LB agar plates. […] Data is expressed as the log10 CFU for each drug treatment.

[4] = test system: wild-type E. coli CGSC#7636 (BW25113); test: MIC, wild-type E. coli; format: cell-based; conditions: Escherichia coli, read-out: MIC WT
In short: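 Single colonies grown in M9; compounds diluted two-fold in DMSO and added to 3–7 × 10^5 CFU/ml cultures, final 40 to 0.3 µg/mL. Wells at and above MIC diluted 1:10 and plated on LB agar for MBC.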

T1 sequence (P17117 whole entry): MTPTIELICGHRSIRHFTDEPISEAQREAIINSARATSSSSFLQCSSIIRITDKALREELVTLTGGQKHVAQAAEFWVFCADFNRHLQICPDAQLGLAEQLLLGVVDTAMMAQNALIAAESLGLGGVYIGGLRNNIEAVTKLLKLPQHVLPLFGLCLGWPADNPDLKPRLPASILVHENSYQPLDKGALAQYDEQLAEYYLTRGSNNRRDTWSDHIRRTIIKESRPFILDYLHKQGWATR

O=C(Nc1nc(-c2ccc(F)cc2F)cs1)c1ccc([N+](=O)[O-])s1 [compound 12, N-(4-(2,4-difluorophenyl)thiazol-2-yl)-5-nitrothiophene-2-carboxamide]
0.06 to 40 µg/mL: MIC Range ([2]; 75 E.coli clinical isolates)
2.5 µg/mL: MIC50 ([2]; Escherichia coli, 75 E.coli clinical isolates, 50% clinical isolates)
1 µg/mL: MIC ([2]; strain SEC012) | MIC ([2]; strain SEC021) | MIC ([2]; strain SEC028) | MIC ([2]; strain SEC037) | MIC ([2]; strain SEC052) | MIC ([2]; strain SEC062)
8 µg/mL: MIC ([2]; strain SEC078)
32 µg/mL: MIC ([2]; strain SEC004) | MIC ([2]; strain SEC008) | MIC ([2]; strain SEC013) | MIC ([2]; strain SEC015) | MIC ([2]; strain SEC020) | MIC ([2]; strain SEC023) | MIC ([2]; strain SEC036) | MIC ([2]; strain SEC044) | MIC ([2]; strain SEC048) | MIC ([2]; strain SEC049)
4 µg/mL: MIC ([2]; strain SEC001) | MIC ([2]; strain SEC002) | MIC ([2]; strain SEC003) | MIC ([2]; strain SEC005) | MIC ([2]; strain SEC006) | MIC ([2]; strain SEC032) | MIC ([2]; strain SEC042) | MIC ([2]; strain SEC050) | MIC ([2]; strain SEC051) | MIC ([2]; strain SEC057) | MIC ([2]; strain SEC058) | MIC ([2]; strain SEC064) | MIC ([2]; strain SEC068) | MIC ([2]; strain SEC069) | MIC ([2]; strain SEC070) | MIC ([2]; strain SEC073) | MIC ([2]; strain SEC075) | MIC ([2]; strain SEC079) | MIC ([2]; strain SEC080)
2 µg/mL: MIC ([2]; strain SEC007) | MIC ([2]; strain SEC011) | MIC ([2]; strain SEC014) | MIC ([2]; strain SEC016) | MIC ([2]; strain SEC018) | MIC ([2]; strain SEC019) | MIC ([2]; strain SEC022) | MIC ([2]; strain SEC024) | MIC ([2]; strain SEC025) | MIC ([2]; strain SEC026) | MIC ([2]; strain SEC029) | MIC ([2]; strain SEC031) | MIC ([2]; strain SEC033) | MIC ([2]; strain SEC034) | MIC ([2]; strain SEC035) | MIC ([2]; strain SEC038) | MIC ([2]; strain SEC039) | MIC ([2]; strain SEC040) | MIC ([2]; strain SEC041) | MIC ([2]; strain SEC043) | MIC ([2]; strain SEC045) | MIC ([2]; strain SEC046) | MIC ([2]; strain SEC047) | MIC ([2]; strain SEC053) | MIC ([2]; strain SEC054) | MIC ([2]; strain SEC055) | MIC ([2]; strain SEC059) | MIC ([2]; strain SEC060) | MIC ([2]; strain SEC061) | MIC ([2]; strain SEC063) | MIC ([2]; strain SEC065) | MIC ([2]; strain SEC067) | MIC ([2]; strain SEC071) | MIC ([2]; strain SEC072) | MIC ([2]; strain SEC074) | MIC ([2]; strain SEC076) | MIC ([2]; strain SEC077)
0.06 µg/mL: MIC ([2]; strain SEC017)
2.30 µM/min: NfsA activity (rate of compound conversion) [1]
0.6 µg/mL: MIC ([4]; BW25113, E. coli WT BW25113) | MIC ([4]; BW25113, Table S11)
0.3: MIC ∆nfsAB & ∆acrB+nfnB [3]
10 µg/mL: MIC90 ([2]; Escherichia coli, 75 E.coli clinical isolates, 90% clinical isolates)
